Results as given in US9624235B2, “Compounds and methods for inhibition of AP endonuclease-1/redox factor-1 (HAPE1) activity” (University of Pittsburgh—Of the Commonwealth System of …, priority 2012, dated 2017).
Where two headings read alike, the source gives them in different places.

Assays:
APE-1 [1] = target: T1, APE-1 (Homo sapiens (Human), UniProt P27695); test: Molecular beacon assay for APE-1 endonuclease inhibition; format: biochemical; conditions: molecular beacon assay, endonuclease activity; read-out: Ki APE-1 endonuclease inhibition
T1 sequence (P27695 whole entry): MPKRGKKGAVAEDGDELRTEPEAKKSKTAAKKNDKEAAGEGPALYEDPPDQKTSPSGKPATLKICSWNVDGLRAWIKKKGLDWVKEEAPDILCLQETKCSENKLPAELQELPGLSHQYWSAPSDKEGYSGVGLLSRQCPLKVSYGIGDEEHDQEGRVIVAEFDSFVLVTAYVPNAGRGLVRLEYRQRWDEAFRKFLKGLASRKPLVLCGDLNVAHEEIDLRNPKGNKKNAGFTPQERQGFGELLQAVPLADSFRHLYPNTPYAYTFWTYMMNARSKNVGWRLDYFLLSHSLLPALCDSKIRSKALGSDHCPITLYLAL
Text: Screening Assays for APE1 Inhibition—The initial screen was designed to look at the effect of potential inhibitors on APE1 repair kinetics. The approach can be used as a high throughput screen by choosing a specific timepoint to monitor. The screen utilizes a molecular beacon with a tetrahydrofuran (THF) abasic site within the stem region of a DNA hairpin that has a fluorophore on the 5′-terminus and a quencher on the 3′-terminus (FIG. 2a). […] An example of the molecular beacon screen and the excision assay are shown in FIGS. 2b,c and 2d, respectively.
Molecular Beacon Assay for Screening of APE-1 Inhibitors. A fluorescence-based molecular beacon assay to measure APE-1 protein activity and inhibition was performed as described previously with some modifications. Tang et al. Neuro Oncol. 13, 471-486 (2011) APE-1 (2 nM) in 10 mM HEPES (pH 7.8) 0.5 mM MgCl, 100 mM NaCl, 100 mM KCl, 0.0005% (w/v) BSA, was incubated with 20 nM 5′-(F)-CGACTXTTGAATTGACACGCCATGTCGATCAATTCAATAGTCG-(D)-3′ [X=tetrahydrofuran (THF) abasic site modification; F, 6-carboxyfluorescein (6-FAM); and D, DABCYL] that forms a hairpin with a 15 base pair stem and a 13 base loop. The THF modification is a known substrate for APE-1 excision. APE-1 mediated cleavage of the phosphodiester backbone at the THF-abasic site led to release of the 5′ 6-FAM (fluorophore) containing pentanucleotide, disrupting the Förster Resonance Energy Transfer (FRET) mediated quenching of the 6-FAM by DABCYL in the native hairpin oligomer. Since the signal was generated by continuous liberation of the fluorophore-labeled excision fragment, progress of this reaction could be monitored in real-time using a Cary Eclipse fluorescence spectrometer (Varian, Palo Alto, Calif.) or a Synergy H1 multi-well plate reader (BioTek, Winooski, Vt.). Reactions were optimized to yield ˜90% substrate turnover in 10 min, and fluorescence intensities measured every 12 s at 495 nm excitation and 520 nm emission. Data from the first 1-3 min of the assays (linear phase) were used to determine rate of substrate turnover (V0). The Michaelis constant (KM) was deduced experimentally, by incubating 2 nM APE-1 protein with 2-500 nM hairpin DNA substrate and measuring V0 —the experimentally observed V0 were analyzed as a function of substrate concentration [S] via non-linear regression using Prism (v.4; GraphPad Software, Inc., La Jolla, Calif.) and the KM was calculated as per the algorithm in the software package. To assay inhibition, 2 nM APE-1 protein was pre-incubated with 0.05-10.00 μM of the candidate inhibitors at 25° C. for 60 min, before initiating the excision assay by addition of hairpin DNA substrate. V0 was calculated at various concentrations of inhibitors and represented as inverse function of increasing inhibitor concentration [I]. […] All assays were carried out in three independent sets to obtain mean data and standard error of mean.
(§1) Screening for APE-1 Inhibitors. […] In this assay, the DNA hairpin substrate has a 6-FAM fluorophore on the 5′-terminus, a DABACYL fluorescence quencher on the 3′-terminus and a THF abasic site located 6 base pairs from the 5′-terminus in the stem region (FIG. 6). APE-1 activity is monitored as an increase in fluorescence due to the release of the 5′-(6-FAM)-GCACT fragment as a function of time. […] In this assay, substrate turnover was calculated from relative intensities of cleaved vs. intact oligomers and correlated with inhibitor concentration.

T98G cells [2] = test: Potentiation of MeLex cytotoxicity, short term (72 h) MTS assay; format: cell-based, human; conditions: 72 h MTS assay
Protocol: (§2) Cytotoxic Potentiation of Various DNA Damaging Agents. T98G cells maintained in growth medium were resuspended in fresh growth medium and seeded into 96-well plates at 2000 cells/well (short term cytotoxicity) or 100 cells/well (long term cytotoxicity) as described in the previous section. After 24 h, the cells were treated with serial dilutions of various DNA damaging drugs in absence or presence of APE-1 inhibitors. At the end of the treatment period, cell survival was assayed using CellTiter 96 AQueous or CyQUANT kits for the short- and long-term studies respectively.
(§3) Toxicity. It was assumed that inhibition of APE-1 activity would be lead to toxicity since genetic deletion of the protein is lethal to cells. […] The toxicities were also determined in combination with the DNA minor groove methylating agent, MeLex. MeLex efficiently and selectively generates N3-methyladenine, which is converted into an abasic site by a BER glycosylase and/or hydrolytic depurination. The T98G cell line is relatively resistant to DNA damaging anticancer agents due to expression of multiple drug resistance proteins and O^6-alkylguanine-DNA alkyltransferase. […] A goal of the development of APE-1 inhibitors is to determine if they can be used to enhance the activity of DNA alkylating agents.

T98G cells [3] = test: Short term (72 h) MTS cytotoxicity assay; format: cell-based, human; conditions: 72 h MTS assay
Protocol: (§4) Cytotoxic Effects of APE-1 Inhibitors on Cultured Human Glioblastoma (T98G) Cells. Human glioblastoma cells (T98G) were maintained in growth medium as described above. […] The cells were allowed to attach and grow for 24 h, and then treated with serial dilutions of the drug for 72 h. After treatment, viable cells were measured by an MTS assay using the CellTiter 96 AQueous kit (Promega) as per manufacturer's instructions. […] The cells were allowed to attach and grow for 24 h and treated with serial dilutions of the drug for 240 h. After treatment, viable cells were measured using the CyQUANT cell proliferation assay kit (Invitrogen) as per manufacturer's instructions.
as §3

T98G cells [4] = test: Long term (10-day) CyQUANT cytotoxicity assay; format: cell-based, human; conditions: for LD10 concentration: long term assay
Protocol: as §4, §3

[5] = target: APE-1 activity in T98G cell nuclear lysates (Homo sapiens (Human), UniProt P27695); test: Molecular beacon assay in T98G cell nuclear extracts; format: biochemical
APE-1 activity in T98G cell nuclear lysates, sequence (P27695 whole entry, stated change not applied): as the sequence (P27695 whole entry) above
Protocol: Isolation and Assay of APE-1 Protein from Nuclear Extracts of Glioma Cells. Human glioblastoma cells (T98G) were maintained in growth medium, i.e., Eagle's Minimum Essential Medium (EMEM) with 10% fetal bovine serum (FBS), […] gentamycin, 1×MEM non-essential amino acids and 1 mM sodium pyruvate. Cells were harvested by Trypsin-EDTA treatment, washed with 1×PBS and nuclear proteins isolated using the CelLytic NuCLEAR Extraction kit (Sigma-Aldrich) as per manufacturer's instructions. Isolated nuclear proteins were estimated colorimetrically (BCA protein assay) and stored at −80° C. (long term) or at −20° C. during regular use. To assay APE-1 activity in T98G cells, nuclear extracts were serially diluted in 10 mM HEPES, 50 mM KCl, 1 mM DTT, 20% (v/v) glycerol and the activities measured via the molecular beacon assay (as described above). […] EC2 nM of nuclear extracts was incubated with 2 to 500 nM hairpin DNA substrate and the V0 measured for each value of [S]. Finally, the apparent KM* was deduced using the software algorithm in Prism (as described previously), and the KM* was used to determine the apparent Ki*. Inhibition of EC2 nM APE-1 activity by the inhibitors was assayed via the molecular beacon assay (described above).
Inhibition of APE-1 Activity in Nuclear Lysates. The ability of 1-5 and 8 to block APE-1 endonuclease activity in a complex mixture of proteins from T98G cell nuclear lysates was tested using the molecular beacon assay. The APE-1 activity in the lysates was standardized to give ˜90% turnover of 25 nM substrate in 10 min.

T98G cells [6] = test: Potentiation of MeLex cytotoxicity, long term (10 d) CyQUANT assay; format: cell-based, human
Protocol: as §2, §3

APE-1 [7] = target: T1, APE-1; test: Gel-based excision assay for APE-1 inhibitors; format: biochemical; conditions: APE-1 cleaved fragment vs. full length DNA substrate
Protocol: as §1

[8] = system: aldehyde reactive sites in genomic DNA from T98G cells; format: cell-based, human; conditions: for effect on ARS: 0.25 μM compound alone
Protocol: Quantification of Abasic Sites. T98G cells maintained in growth medium, were harvested by Trypsin-EDTA treatment, resuspended in fresh growth medium at a density of 2.5×10^5 cells mL^−1, and 2 mL (5×10^5 cells) of this suspension was seeded into the wells of a sterile 6-well tissue culture plate. Cells were allowed to grow for 24 h, treated with the various compounds for different time points and/or at different concentrations. At the end of each treatment, adherent cells were harvested by trypsin-EDTA treatment and pooled with live and dead cells in culture supernatant. Pooled cells in suspension were pelleted by centrifugation, washed with 1×PBS and genomic DNA was isolated using the DNAzol reagent (Invitrogen). DNA in solution was quantified by UV absorbance (λ260 nm) using a Synergy H1 multiwell plate reader (BioTek, Winooski, Vt.). Abasic sites in purified DNA were then reacted with the biotin-conjugated aldehyde reactive probe (ARP), immobilized onto 96-well ELISA plates, and detected using horseradish peroxidase (HRP)-conjugated streptavidin using a colorimetric substrate as per manufacturer's instructions (Dojindo Molecular Technologies, Rockville, Md.).
The biotin tagged ARS are quantified using an avidin-biotin assay, followed by colorimetric detection with horseradish peroxidase conjugated to avidin.

VERA kidney cell line = conditions: read-out: IC50 for the toxicity; cited from earlier work
[9] = system: HEYC-2 ovarian tumor cells; conditions: read-out: IC50 for cell growth; cited from earlier work
[10] = system: SKOV-3X ovarian tumor cells; conditions: read-out: IC50 for cell growth; cited from earlier work
APE-1 [11] = target: T1, APE-1; test: Displacement of 4 from APE-1 by E3330 (fluorescence); format: binding; conditions: 6 μM 4, 1 μM APE-1
Protocol: (§5) Fluorescence and UV Spectrometry Binding Studies. The fluorescence spectra were measured at room temperature on a Cary Eclipse fluorescence spectrometer (Varian, Palo Alto, Calif.). The fluorescence properties of 1 and 4 were measured in 10 mM HEPES, 0.5 mM MgCl2, 100 mM KCl, 100 mM NaCl, 2% glycerol, in absence or presence of wild type (unmodified) hairpin DNA (5′-[…]-3′) or THF-modified hairpin DNA (5′-CGAXTTCGCAGGACCGAATTCG-3′) or APE-1 protein. A solution of 0.5 μM of either DNA sequence was titrated against 1-10 μM ethidium bromide (EtBr) to determine saturation of EtBr by fluorescence (530 nm excitation with 610 nm emission) and the subsequent displacement of EtBr (4 μM) by 1-20 μM 1 or 4 was also assayed. The APE protein-inhibitor binding fluorescence was assayed by titrating 0.1-20 μM of 4 against 1 μM of APE-1 protein.
Interaction of Inhibitors with APE-1 Protein. To establish whether there is a direct interaction between an inhibitor and APE-1, the fluorescence spectra of 4 was determined in the absence and presence of increasing amounts of the protein.

double-stranded DNA = conditions: cited from earlier work
THF modified hairpin DNA = test: EtBr fluorescence titration with hairpin DNA; format: binding
Protocol: as §5, with “(5′-[…]-3′)” for “(5′-CGAXTTCGCAGGACCGAATTCG-3′)”
(§6) Interaction of Inhibitors with DNA. A potential mechanism by which compounds can block APE-1 activity involves the interaction with the DNA substrate by intercalation. Such binding to DNA could sterically reduce the accessibility of the protein to the abasic site substrate. […] To further probe the potential role of intercalation, the effect of EtBr on the fluorescence of 1 and 4 were determined. […] The small changes in the fluorescence of 4 with both DNAs indicate little discrimination for the THF lesion.

unmodified hairpin DNA = test: EtBr fluorescence titration with hairpin DNA; format: binding
Protocol: as §5, with “(5′-[…]-3′)” for “(5′-CGAXTTCGCAGGACCGAATTCG-3′)”
as §6

T98G cells [12] = test: MTT toxicity assay in T98G glioma cells; format: cell-based, human; conditions: FIG. 3(a)
Protocol: FIGS. 3(a)-(b). […] (b) Toxicity of MeLex (efficiently generates 3-mA) in the absence (o) and presence of 50 nM ( ) or 250 nM (∇) inhibitor 4.
Toxicity of APE1 Inhibitors in T98G Glioma Cells—A short term (MTT assay) and long term (clonogenic assay) dose response toxicity for the inhibitors was performed in T98G glioma cells in the absence of a DNA alkylating agent. This cell line was selected because it is quite resistant to many DNA alkylating agents; therefore, it represents a good model to test the potential effect of APE1 inhibition on the toxicity of DNA damaging compounds.

[13] = 80 μM MeLex + 0.25 μM compound, after 6 h

| SMILES | Ki (APE-1 [1]) [µM] | LD50 of MeLex in the presence of LD10 concentration of inhibitor (T98G cells [2]) [µM] | LD10 concentration (T98G cells [3]) [µM] | LD10 concentration (T98G cells [4]) [µM] | Ki [5] [µM] | IC50 (APE-1 [7]) [µM] | effect on ARS [8] | level of ARS in combination with MeLex [8, 13] | other results |
| --- | --- | --- | --- | --- | --- | --- | --- | --- | --- |
| C/C(=N\Nc1cc(C)nc2cc3c(cc12)OCO3)c1cn(C)n(-c2ccccc2)c1=O [Compound 1] | 0.18 | 54 | 2.20 | 0.17 | 0.45 | 4.4 |  |  | LD50 of MeLex in the presence of LD10 concentration of inhibitor (T98G cells [6]): 2.0 µM; level of ARS in combination with MeLex ([8]; 80 μM MeLex + 0.25 μM inhibitor, through at least 12 h): 50 sites/10^5 nucleotides |
| Cc1cc(N/N=C/c2ccc3c(c2)OCO3)c2cc3c(cc2n1)OCO3 [Compound 3] | 0.19 |  |  |  | 0.28 | 2.9 |  |  | IC50 (VERA kidney cell line): 0.63 µM; IC50 (T98G cells [4]; Homo sapiens, T98G, assay not stated, read-out: toxicity observed in the glioma T98G line): 0.54 µM |
| CCCCCCCCC/C(=C\C1=C(C)C(=O)C(OC)=C(OC)C1=O)C(=O)O [Compound E3330] |  | 128 | 6.9 | 14.80 |  |  | returned to control levels by 18 h | dropped off | IC50 [9]: ~35 µM; IC50 [10]: ~35 µM; E3330 concentration for approximately 50% decrease in the fluorescence of 4 (APE-1 [11]): approximately 12 μM; potentiating the toxicity of MeLex (T98G cells [6]; LD10 concentration): little or no contribution |
| CC[n+]1c(-c2ccccc2)c2cc(N)ccc2c2ccc(N)cc21 [EtBr, ethidium bromide] | 1.8 |  |  |  |  |  | no effect | dropped off | Kd (double-stranded DNA): ~1 µM; Kd (THF modified hairpin DNA): 1.8 µM; Kd (unmodified hairpin DNA): 1.6 µM |
| CCn1c2ccccc2c2cc(/C=N/Nc3cc(C)nc4cc5c(cc34)OCO5)ccc21 [Inhibitor-1] |  |  |  |  |  |  |  |  | LD50 (T98G cells [12]): 960 nM |
